From PMC10620212, “Postprandial glycemic and lipidemic effects of black rice anthocyanin extract fortification in foods of varying macronutrient compositions and matrices” (NPJ Science of Food, 2023)

Legend:
α-glucosidase = assay: In-vitro starch hydrolase inhibition (starch turbidity assay), α-glucosidase; type: biochemical; settings: mean (SD)
Experimental: (§1) To determine the inhibitor activities of major ACN species, 50 μL of enzyme solution was mixed with 50 μL of inhibitor solution of different concentrations and incubated for 15 min at 37 °C. The reaction was initiated by mixing 100 μL of 1% gelatinized wheat starch solution into the enzyme-inhibitor mixtures. Changes in turbidity were immediately monitored at 660 nm for 2 h in a microplate reader preincubated at 37 °C, with one reading per minute, while shaking in between readings to minimize starch sedimentation. Enzyme activities were inversely proportional to the AUC for turbidity readings. The percentage inhibition (%I) was defined as:7 %I=(AUCSample−AUCControl)/AUCSample×100 in which AUCSample is the area under the curve for the inhibitor, and AUCControl is the area under the curve without inhibitors.

α-amylase = target: T1, α-amylase (Sus scrofa, UniProt P00690); assay: In-vitro starch hydrolase inhibition (starch turbidity assay), α-amylase; type: biochemical, porcine; settings: mean (SD)
T1 sequence (P00690 16-511): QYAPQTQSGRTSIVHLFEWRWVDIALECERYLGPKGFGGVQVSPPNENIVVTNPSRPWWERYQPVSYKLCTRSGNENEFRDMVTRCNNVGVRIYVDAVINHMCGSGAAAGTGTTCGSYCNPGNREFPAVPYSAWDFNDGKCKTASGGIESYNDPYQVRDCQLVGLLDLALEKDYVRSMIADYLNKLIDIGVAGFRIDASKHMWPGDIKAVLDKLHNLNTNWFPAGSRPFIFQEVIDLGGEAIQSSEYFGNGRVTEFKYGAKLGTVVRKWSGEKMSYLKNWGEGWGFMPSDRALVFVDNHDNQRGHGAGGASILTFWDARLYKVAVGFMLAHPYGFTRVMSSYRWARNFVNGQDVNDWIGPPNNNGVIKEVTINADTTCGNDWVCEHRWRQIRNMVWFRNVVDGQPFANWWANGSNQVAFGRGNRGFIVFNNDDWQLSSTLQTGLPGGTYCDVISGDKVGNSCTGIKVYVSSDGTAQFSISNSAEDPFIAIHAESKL
Experimental: as §1

[1] = set-up: method as in PMID 24602005, PMID 25347327; settings: previous reports; cited from earlier work
[2] = Bread trial: plasma bioavailability of anthocyanins and phenolic metabolites; type: in vivo, human; settings: for change in plasma concentration, mean difference between 60 and 120 min: 4-BB group
Experimental: Bioavailability analysis was performed in the Bread trial according to the methods by Kay, et al.[58]. […] The sample was drained off in a vacuum manifold and washed with 2 volumes of acidified water. The remaining ACN extract was eluted with 6 mL acidified methanol, and subsequently brought to dryness at 25 °C under a continuous stream of nitrogen gas. The residue was dissolved in 200 μL of 0.1% v/v formic acid and filtered through a 13 mm 0.22 μm PTFE hydrophilic syringe filter. The resulting solution was analyzed using a reverse-phased C18 Sunfire column (250 × 4.6 mm/5 μm; Waters, Wexford, Ireland) on an HPLC system (Shimadzu Prominence, Shimadzu, Kyoto, Japan) connected with a DAD. The injection volume was 50 μL. The flow rate and oven temperature were maintained at 1 mL/min at 25 °C. A gradient elution process was applied (mobile phase A: 5% v/v formic acid; mobile phase B: 100% acetonitrile): 0% B for 5 min, 10% B at 20 min, 13% B at 40 min, 20% B at 44 min, 25% B at 50 min, and 100% B at 55 min. Detection of ACNs was performed at 520 nm; while its metabolites, ferulic acid, vanillic acid, and protocatechuic acid were detected at 280 nm. Identification and quantification of each ACN and metabolite were based on matching the retention time and peak areas with the external calibration curve of respective standards.

| IC50 (α-glucosidase) | IC50 (α-amylase) | share of total polyphenols in plasma at 60 min peak concentrations ([2]; Bread trial) | Compound | time of peak plasma concentrations [1] | change in plasma concentration, mean difference between 60 and 120 min [2] |
| --- | --- | --- | --- | --- | --- |
| 1340 µM | 649 µM | – | COc1cc(-c2[o+]c3cc(O)cc(O)c3cc2O[C@@H]2O[C@H](CO)[C@@H](O)[C@H](O)[C@H]2O)ccc1O [P3G, peonidin-3-glucoside] | – | – |
| – | – | 93.9% | O=C(O)c1ccc(O)c(O)c1 [PCA, protocatechuic acid] | 1 to 2 h | – |

The remaining lines, values behind:

| Compound | IC50 (α-glucosidase) | IC50 (α-amylase) | share of total polyphenols in plasma at 60 min peak concentrations ([2]; Bread trial) | time of peak plasma concentrations [1] | change in plasma concentration, mean difference between 60 and 120 min [2] |
| --- | --- | --- | --- | --- | --- |
| OC[C@H]1O[C@@H](Oc2cc3c(O)cc(O)cc3[o+]c2-c2ccc(O)c(O)c2)[C@H](O)[C@@H](O)[C@@H]1O [C3G, cyanidin-3-glucoside] | 1120 µM | 364 µM | – | – | – |
| C[C@@H]1O[C@@H](OC[C@H]2O[C@@H](Oc3cc4c(O)cc(O)cc4[o+]c3-c3ccc(O)c(O)c3)[C@H](O)[C@@H](O)[C@@H]2O)[C@H](O)[C@H](O)[C@H]1O [C3R, cyanidin-3-rutinoside] | 904 µM | 483 µM | – | – | – |
| COc1cc(/C=C/C(=O)O)ccc1O [FA, ferulic acid] | – | – | – | 0.5 to 1 h | 1.08 |
| COc1cc(C(=O)O)ccc1O [VA, vanillic acid] | – | – | – | 0.5 to 1 h | 0.439 |
